From patent US20110071108A1, “Beta-Cyclodextrin Derivatives as Antibacterial Agents” (Pinnacle Pharmaceuticals, Inc., priority 2005, published 2011)

What was measured:
Experiment in all cases: Bacterial panel testing, MIC by broth microdilution
Format in all cases: cell-based
Details in all cases: 20-24 hours growth
[1] = tested on: Staphylococcus aureus
Description: (§1) One to three colonies of bacteria were picked from an Mueller-Hinton or Brain Heart infusion agar plate (depending on the bacterial strain) and transferred to 3 ml Mueller-Hinton broth or Brain Heart infusion media (depending on the bacterial strain). Bacteria were allowed to grow for 2-4 hours in an incubator at 37° C. Bacteria-inoculated media were dispersed in 0.9% saline to match McFarland standard density. 100 μl standardized inoculation was added to 20 ml media (dilution 1). 10 μl of the new dilution was added to 990 μl media and mixed (dilution 2). 10 μl of dilution 2 was spread on an agar plate and allowed to grow overnight. Colonies were then […].
(§2) Test compound was diluted to 10 μg/ml in dimethylsulfoxide. Four μl of Rifampicin antibiotic was loaded into row H, column 2.
(§3) All wells were then filled with 100 μl of inoculated media (dilution 1 from Example 1). A further 100 μl of the inoculated media was then added to column 2 and the contents are pipetted to thoroughly mix the contents. A full 100 μl was then transferred from column 2 and mixed into column 3. This process was continued from left to right until columns 2-12 were serially diluted, and the final draw from column 12 was discarded. The plates were covered with 3M sealing tape (plates containing Enterococcus faecium were sealed with Air Pore sealing tape) and allowed to grow for 20-24 hours. Cytotoxic wells (clear wells) are then scored and the potency of the compound was determined.

[2] = tested on: Eschericia coli
Description: as §1, §2, §3

[3] = tested on: Pseudomonas aeruginosa
Description: as §1, §2, §3

[4] = tested on: Salmonella choleraesuis
Description: as §1, §2, §3

[5] = tested on: Enterococcus faecium
Description: as §1, §2, §3

O=C(C[n+]1ccccc1)NCC1OC2OC3C(CNC(=O)C[n+]4ccccc4)OC(OC4C(CNC(=O)C[n+]5ccccc5)OC(OC5C(CNC(=O)C[n+]6ccccc6)OC(OC6C(CNC(=O)C[n+]7ccccc7)OC(OC7C(CNC(=O)C[n+]8ccccc8)OC(OC8C(CNC(=O)C[n+]9ccccc9)OC(OC1C(O)C2O)C(O)C8O)C(O)C7O)C(O)C6O)C(O)C5O)C(O)C4O)C(O)C3O.[Cl-].[Cl-].[Cl-].[Cl-].[Cl-].[Cl-].[Cl-] (centres unmarked)
>200 mg/L: MIC SA [1] | MIC EC [2] | MIC PA [3] | MIC SC [4] | MIC EF [5]

Cl.Cl.Cl.Cl.Cl.Cl.Cl.O=C(CNCc1ccccc1)NCC1OC2OC3C(CNC(=O)CNCc4ccccc4)OC(OC4C(CNC(=O)CNCc5ccccc5)OC(OC5C(CNC(=O)CNCc6ccccc6)OC(OC6C(CNC(=O)CNCc7ccccc7)OC(OC7C(CNC(=O)CNCc8ccccc8)OC(OC8C(CNC(=O)CNCc9ccccc9)OC(OC1C(O)C2O)C(O)C8O)C(O)C7O)C(O)C6O)C(O)C5O)C(O)C4O)C(O)C3O (centres unmarked)
>200 mg/L: MIC SA [1] | MIC EC [2] | MIC PA [3] | MIC SC [4] | MIC EF [5]

CC(C)(C)OC(=O)NCCCC[C@H](NC(=O)[C@@H](N)CCCCNC(=O)OC(C)(C)C)C(=O)NCC1OC2OC3C(CNC(=O)[C@H](CCCCNC(=O)OC(C)(C)C)NC(=O)[C@@H](N)CCCCNC(=O)OC(C)(C)C)OC(OC4C(CNC(=O)[C@H](CCCCNC(=O)OC(C)(C)C)NC(=O)[C@@H](N)CCCCNC(=O)OC(C)(C)C)OC(OC5C(CNC(=O)[C@H](CCCCNC(=O)OC(C)(C)C)NC(=O)[C@@H](N)CCCCNC(=O)OC(C)(C)C)OC(OC6C(CNC(=O)[C@H](CCCCNC(=O)OC(C)(C)C)NC(=O)[C@@H](N)CCCCNC(=O)OC(C)(C)C)OC(OC7C(CNC(=O)[C@H](CCCCNC(=O)OC(C)(C)C)NC(=O)[C@@H](N)CCCCNC(=O)OC(C)(C)C)OC(OC8C(CNC(=O)[C@H](CCCCNC(=O)OC(C)(C)C)NC(=O)[C@@H](N)CCCCNC(=O)OC(C)(C)C)OC(OC1C(O)C2O)C(O)C8O)C(O)C7O)C(O)C6O)C(O)C5O)C(O)C4O)C(O)C3O (some centres unmarked)
>200 mg/L: MIC SA [1] | MIC EC [2] | MIC PA [3] | MIC SC [4] | MIC EF [5]

OC1C2OC(CNc3nc4ccccc4[nH]3)C(OC3OC(CNc4nc5ccccc5[nH]4)C(OC4OC(CNc5nc6ccccc6[nH]5)C(OC5OC(CNc6nc7ccccc7[nH]6)C(OC6OC(CNc7nc8ccccc8[nH]7)C(OC7OC(CNc8nc9ccccc9[nH]8)C(OC8OC(CNc9nc%10ccccc%10[nH]9)C(O2)C(O)C8O)C(O)C7O)C(O)C6O)C(O)C5O)C(O)C4O)C(O)C3O)C1O (centres unmarked)
>200 mg/L: MIC SA [1] | MIC EC [2] | MIC PA [3] | MIC SC [4] | MIC EF [5]

C=CCNCC1OC2OC3C(CNCC=C)OC(OC4C(CNCC=C)OC(OC5C(CNCC=C)OC(OC6C(CNCC=C)OC(OC7C(CNCC=C)OC(OC8C(CNCC=C)OC(OC1C(O)C2O)C(O)C8O)C(O)C7O)C(O)C6O)C(O)C5O)C(O)C4O)C(O)C3O (centres unmarked)
>200 mg/L: MIC SA [1] | MIC EC [2] | MIC PA [3] | MIC SC [4] | MIC EF [5]

Cl.Cl.Cl.Cl.Cl.Cl.Cl.N=C(N)NCCCCSCC1OC2OC3C(CSCCCCNC(=N)N)OC(OC4C(CSCCCCNC(=N)N)OC(OC5C(CSCCCCNC(=N)N)OC(OC6C(CSCCCCNC(=N)N)OC(OC7C(CSCCCCNC(=N)N)OC(OC8C(CSCCCCNC(=N)N)OC(OC1C(O)C2O)C(O)C8O)C(O)C7O)C(O)C6O)C(O)C5O)C(O)C4O)C(O)C3O (centres unmarked)
>200 mg/L: MIC SA [1] | MIC EC [2] | MIC PA [3] | MIC SC [4] | MIC EF [5]

CC(C)NCC1OC2OC3C(CNC(C)C)OC(OC4C(CNC(C)C)OC(OC5C(CNC(C)C)OC(OC6C(CNC(C)C)OC(OC7C(CNC(C)C)OC(OC8C(CNC(C)C)OC(OC1C(O)C2O)C(O)C8O)C(O)C7O)C(O)C6O)C(O)C5O)C(O)C4O)C(O)C3O (centres unmarked)
>200 mg/L: MIC SA [1] | MIC EC [2] | MIC PA [3] | MIC SC [4] | MIC EF [5]
